According to patent publication US20230286970A1, “NOVEL OXADIAZOLE-BASED SELECTIVE HDAC6 INHIBITORS” (ITALFARMACO S.P.A., priority 2020, published 2023):

Tests used:
recombinant human HDAC6 = recombinant human HDAC6 (Homo sapiens (Human), UniProt Q9UBN7); assay: Enzymatic screening, HDAC6 inhibition (fluorogenic FdL_G substrate); format: biochemical
How it was run: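 Enzyme was preincubated with compound (8 doses, triplicate, 1% DMSO) in 25 mM Tris-HCl pH 8, 130 mM NaCl, 0.05% Tween-20, 10% glycerol, with BSA. A FLUOR DE LYS-Green substrate was then added, and fluorescence was read after developer plus 2 μM TSA.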

recombinant human HDAC1 = recombinant human HDAC1 (Homo sapiens (Human), UniProt Q13547); assay: Enzymatic screening, HDAC1 inhibition (fluorogenic FdL_G substrate); format: biochemical
Chain of recombinant human HDAC1 (Q13547 whole entry): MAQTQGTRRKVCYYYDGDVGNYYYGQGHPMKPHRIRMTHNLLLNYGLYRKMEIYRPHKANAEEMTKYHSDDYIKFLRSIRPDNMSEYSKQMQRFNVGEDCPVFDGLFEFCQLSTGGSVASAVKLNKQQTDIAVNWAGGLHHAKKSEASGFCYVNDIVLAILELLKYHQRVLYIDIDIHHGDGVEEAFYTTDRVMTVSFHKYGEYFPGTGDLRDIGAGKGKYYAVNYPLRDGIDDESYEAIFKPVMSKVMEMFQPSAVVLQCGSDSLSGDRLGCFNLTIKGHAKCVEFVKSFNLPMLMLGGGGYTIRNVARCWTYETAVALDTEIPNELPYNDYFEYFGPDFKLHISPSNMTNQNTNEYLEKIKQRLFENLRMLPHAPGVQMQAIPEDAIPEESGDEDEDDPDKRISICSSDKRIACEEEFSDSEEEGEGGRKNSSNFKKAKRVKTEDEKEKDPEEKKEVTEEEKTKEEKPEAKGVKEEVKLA
How it was run: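 Recombinant human HDAC1 inhibition was measured fluorometrically using the FLUOR DE LYS-Green (FdL_G) substrate. Compounds at 8 doses (1% DMSO final) in Tris-HCl pH 8 buffer with NaCl, Tween-20 and glycerol were preincubated in triplicate with enzyme and 1 mg/mL BSA, then given substrate. Developer I plus 2 μM TSA was added, and fluorescence read after 25 minutes in the dark.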

Chain of recombinant human HDAC6 (Q9UBN7 whole entry): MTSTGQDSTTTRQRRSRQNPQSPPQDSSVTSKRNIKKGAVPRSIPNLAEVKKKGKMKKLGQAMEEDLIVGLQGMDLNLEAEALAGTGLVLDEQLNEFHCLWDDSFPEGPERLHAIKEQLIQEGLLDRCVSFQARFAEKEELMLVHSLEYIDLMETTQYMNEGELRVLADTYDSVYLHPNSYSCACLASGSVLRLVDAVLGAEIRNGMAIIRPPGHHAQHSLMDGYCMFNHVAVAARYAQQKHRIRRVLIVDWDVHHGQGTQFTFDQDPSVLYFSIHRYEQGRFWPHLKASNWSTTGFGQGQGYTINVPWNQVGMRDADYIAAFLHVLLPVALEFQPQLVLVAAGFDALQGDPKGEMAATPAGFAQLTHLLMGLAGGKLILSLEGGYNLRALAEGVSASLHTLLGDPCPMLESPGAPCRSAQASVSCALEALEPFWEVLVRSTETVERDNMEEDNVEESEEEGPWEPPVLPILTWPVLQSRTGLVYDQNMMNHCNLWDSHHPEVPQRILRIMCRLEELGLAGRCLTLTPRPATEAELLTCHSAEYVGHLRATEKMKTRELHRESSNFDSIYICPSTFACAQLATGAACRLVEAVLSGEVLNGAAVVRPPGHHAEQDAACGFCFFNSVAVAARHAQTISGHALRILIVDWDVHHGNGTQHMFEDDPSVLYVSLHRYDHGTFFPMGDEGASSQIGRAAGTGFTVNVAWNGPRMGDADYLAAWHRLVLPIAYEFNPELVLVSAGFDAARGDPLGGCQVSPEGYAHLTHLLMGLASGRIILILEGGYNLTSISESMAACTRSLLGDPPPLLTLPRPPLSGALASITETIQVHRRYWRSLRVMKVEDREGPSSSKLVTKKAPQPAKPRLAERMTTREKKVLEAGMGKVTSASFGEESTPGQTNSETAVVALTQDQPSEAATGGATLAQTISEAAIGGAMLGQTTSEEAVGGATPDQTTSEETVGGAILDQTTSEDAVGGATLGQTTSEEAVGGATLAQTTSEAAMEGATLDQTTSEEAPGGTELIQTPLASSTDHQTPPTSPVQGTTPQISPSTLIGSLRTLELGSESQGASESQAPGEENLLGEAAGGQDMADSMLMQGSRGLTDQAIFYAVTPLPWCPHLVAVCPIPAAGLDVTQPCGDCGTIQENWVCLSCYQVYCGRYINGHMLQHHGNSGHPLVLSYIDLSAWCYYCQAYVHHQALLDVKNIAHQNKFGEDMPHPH

Structure (SMILES) | IC50 (recombinant human HDAC6) [nM] | IC50 (recombinant human HDAC1) [nM]
Cn1c(N)nc2cc(-c3cn(Cc4ccc(-c5nnc(C(F)F)o5)cc4Cl)nn3)ccc21 [compound 344, 5-[1-[[2-chloro-4-[5-(difluoromethyl)-1,3,4-oxadiazol-2-yl]phenyl]methyl]triazol-4-yl]-1-methylbenzimidazol-2-amine] | 47 | 84400
Cn1c(N)nc2cc(-c3cn(Cc4ccc(-c5nnc(C(F)F)o5)c(F)c4F)nn3)ccc21 [compound 345, 5-[1-[[4-[5-(difluoromethyl)-1,3,4-oxadiazol-2-yl]-2,3-difluorophenyl]methyl]triazol-4-yl]-1-methylbenzimidazol-2-amine] | 24 | 168000
Cn1c(N)nc2cc(-c3cn(Cc4ccc(-c5nnc(C(F)F)o5)c(F)c4)nn3)ccc21 [compound 346, 5-[1-[[4-[5-(difluoromethyl)-1,3,4-oxadiazol-2-yl]-3-fluorophenyl]methyl]triazol-4-yl]-1-methylbenzimidazol-2-amine] | 26 | > 1e+06
Nc1nc2ccc(-c3cn(Cc4ccc(-c5nnc(C(F)F)o5)c(F)c4)nn3)cc2s1 [compound 347, 6-[1-[[4-[5-(difluoromethyl)-1,3,4-oxadiazol-2-yl]-3-fluorophenyl]methyl]triazol-4-yl]-1,3-benzothiazol-2-amine] | 27 | > 1e+06
Cn1c(N)nc2cc(-c3nnn(Cc4ccc(-c5nnc(C(F)F)o5)cc4F)n3)ccc21 [compound 348, 5-[2-[[4-[5-(difluoromethyl)-1,3,4-oxadiazol-2-yl]-2-fluorophenyl]methyl]tetrazol-5-yl]-1-methylbenzimidazol-2-amine] | 26 | > 1e+06
Cn1c(N)nc2cc(-c3cn(Cc4ncc(-c5nnc(C(F)F)o5)cc4F)nn3)ccc21 [compound 349, 5-[1-[[5-[5-(difluoromethyl)-1,3,4-oxadiazol-2-yl]-3-fluoropyridin-2-yl]methyl]triazol-4-yl]-1-methylbenzimidazol-2-amine] | 48 | 178000
Cn1c(N)nc2cc(-c3cn(Cc4cc(F)c(-c5nnc(C(F)F)o5)cc4F)nn3)ccc21 [compound 350, 5-[1-[[4-[5-(difluoromethyl)-1,3,4-oxadiazol-2-yl]-2,5-difluorophenyl]methyl]triazol-4-yl]-1-methylbenzimidazol-2-amine] | 22 | > 1e+06
[2H]C([2H])(c1ccc(-c2nnc(C(F)F)o2)cc1)n1cc(-c2ccc3nc(N)sc3c2)nn1 [compound 351, 6-[1-[dideuterio-[4-[5-(difluoromethyl)-1,3,4-oxadiazol-2-yl]phenyl]methyl]triazol-4-yl]-1,3-benzothiazol-2-amine] | 21 | > 1e+06
[2H]C([2H])(c1ccc(-c2nnc(C(F)F)o2)cc1)n1cc(-c2cccc(NC(=O)N3CCOCC3)c2)nn1 [compound 352, N-[3-[1-[dideuterio-[4-[5-(difluoromethyl)-1,3,4-oxadiazol-2-yl]phenyl]methyl]triazol-4-yl]phenyl]morpholine-4-carboxamide] | 60 | > 1e+06
Fc1cc(-c2nnc(C(F)F)o2)cnc1Cn1nnc(-c2cccc(-c3nc4c([nH]3)CCNC4)c2)n1 [compound 353, 2-(difluoromethyl)-5-[5-fluoro-6-[[5-[3-(4,5,6,7-tetrahydro-1H-imidazo[4,5-c]pyridin-2-yl)phenyl]tetrazol-2-yl]methyl]pyridin-3-yl]-1,3,4-oxadiazole] | 42 | > 1e+06
Fc1cc(-c2nnc(C(F)F)o2)ccc1Cn1nnc(-c2cccc(-c3nc4c([nH]3)CCNC4)c2)n1 [compound 354, 2-(difluoromethyl)-5-[3-fluoro-4-[[5-[3-(4,5,6,7-tetrahydro-1H-imidazo[4,5-c]pyridin-2-yl)phenyl]tetrazol-2-yl]methyl]phenyl]-1,3,4-oxadiazole] | 25 | 183000
Fc1c(Cn2nnc(-c3cccc(-c4nc5c([nH]4)CCNC5)c3)n2)ccc(-c2nnc(C(F)F)o2)c1F [compound 355, 2-(difluoromethyl)-5-[2,3-difluoro-4-[[5-[3-(4,5,6,7-tetrahydro-1H-imidazo[4,5-c]pyridin-2-yl)phenyl]tetrazol-2-yl]methyl]phenyl]-1,3,4-oxadiazole] | 62 | > 1e+06
[2H]C([2H])(c1ccc(-c2nnc(C(F)F)o2)cc1)n1cc(-c2ccc(N)nc2)nn1 [compound 356, 5-[1-[dideuterio-[4-[5-(difluoromethyl)-1,3,4-oxadiazol-2-yl]phenyl]methyl]triazol-4-yl]pyridin-2-amine] | 43 | > 1e+06
Fc1cc(-c2nnc(C(F)F)o2)ccc1Cn1cnc(-c2ccc(NC3=NCCN3)cc2)c1 [compound 357, N-[4-[1-[[4-[5-(difluoromethyl)-1,3,4-oxadiazol-2-yl]-2-fluorophenyl]methyl]imidazol-4-yl]phenyl]-4,5-dihydro-1H-imidazol-2-amine] | 12 | > 1e+06
FC(F)c1nnc(-c2ccc(Cn3cnc(-c4ccc(NC5=NCCN5)cc4)c3)c(Cl)c2)o1 [compound 358, N-[4-[1-[[2-chloro-4-[5-(difluoromethyl)-1,3,4-oxadiazol-2-yl]phenyl]methyl]imidazol-4-yl]phenyl]-4,5-dihydro-1H-imidazol-2-amine] | 52 | 124000
Fc1c(Cn2cnc(-c3ccc(NC4=NCCN4)cc3)c2)ccc(-c2nnc(C(F)F)o2)c1F [compound 359, N-[4-[1-[[4-[5-(difluoromethyl)-1,3,4-oxadiazol-2-yl]-2,3-difluorophenyl]methyl]imidazol-4-yl]phenyl]-4,5-dihydro-1H-imidazol-2-amine] | 11 | > 1e+06
Fc1cc(Cn2cnc(-c3ccc(NC4=NCCN4)cc3)c2)ccc1-c1nnc(C(F)F)o1 [compound 360, N-[4-[1-[[4-[5-(difluoromethyl)-1,3,4-oxadiazol-2-yl]-3-fluorophenyl]methyl]imidazol-4-yl]phenyl]-4,5-dihydro-1H-imidazol-2-amine] | 18 | > 1e+06
Fc1cc(-c2nnc(C(F)F)o2)c(F)cc1Cn1cnc(-c2ccc(NC3=NCCN3)cc2)c1 [compound 361, N-[4-[1-[[4-[5-(difluoromethyl)-1,3,4-oxadiazol-2-yl]-2,5-difluorophenyl]methyl]imidazol-4-yl]phenyl]-4,5-dihydro-1H-imidazol-2-amine] | 9 | > 1e+06
[2H]C([2H])(c1ccc(-c2nnc(C(F)F)o2)cn1)n1cc(-c2ccc(N)nc2)nn1 [compound 362, 5-[1-[dideuterio-[5-[5-(difluoromethyl)-1,3,4-oxadiazol-2-yl]pyridin-2-yl]methyl]triazol-4-yl]pyridin-2-amine] | 18 | > 1e+06
O=C(Nc1cccc(-c2cn(Cc3cc(F)c(-c4nnc(C(F)F)o4)cc3F)nn2)c1)N1CCOCC1 [compound 363, N-[3-[1-[[4-[5-(difluoromethyl)-1,3,4-oxadiazol-2-yl]-2,5-difluorophenyl]methyl]triazol-4-yl]phenyl]morpholine-4-carboxamide] | 29 | > 1e+06
Fc1cc(Cn2nnc(-c3cccc(-c4nc5c([nH]4)CNCC5)c3)n2)ccc1-c1nnc(C(F)F)o1 [compound 364, 2-(difluoromethyl)-5-[2-fluoro-4-[[5-[3-(4,5,6,7-tetrahydro-3H-imidazo[4,5-c]pyridin-2-yl)phenyl]tetrazol-2-yl]methyl]phenyl]-1,3,4-oxadiazole] | 37 | 570000
FC(F)c1nnc(-c2ccc(Cn3nnc(-c4cccc(-c5nc6c([nH]5)CNCC6)c4)n3)c(Cl)c2)o1 [compound 365, 2-[3-chloro-4-[[5-[3-(4,5,6,7-tetrahydro-3H-imidazo[4,5-c]pyridin-2-yl)phenyl]tetrazol-2-yl]methyl]phenyl]-5-(difluoromethyl)-1,3,4-oxadiazole] | 106 | > 1e+06
Fc1cc(-c2nnc(C(F)F)o2)c(F)cc1Cn1nnc(-c2cccc(-c3nc4c([nH]3)CCNC4)c2)n1 [compound 367, 2-(difluoromethyl)-5-[2,5-difluoro-4-[[5-[3-(4,5,6,7-tetrahydro-1H-imidazo[4,5-c]pyridin-2-yl)phenyl]tetrazol-2-yl]methyl]phenyl]-1,3,4-oxadiazole] | 26 | 168000
[2H]C([2H])(c1ccc(-c2nnc(C(F)F)o2)cc1)n1cnc(-c2ccc(NC3=NCCN3)cc2)c1 [compound 368, N-[4-[1-[dideuterio-[4-[5-(difluoromethyl)-1,3,4-oxadiazol-2-yl]phenyl]methyl]imidazol-4-yl]phenyl]-4,5-dihydro-1H-imidazol-2-amine] | 17 | > 1e+06
[2H]C([2H])(c1ccc(-c2nnc(C(F)F)o2)cn1)n1cc(-c2cccc(NC(=O)N3CCOCC3)c2)nn1 [compound 369, N-[3-[1-[dideuterio-[5-[5-(difluoromethyl)-1,3,4-oxadiazol-2-yl]pyridin-2-yl]methyl]triazol-4-yl]phenyl]morpholine-4-carboxamide] | 17 | > 1e+06
Cn1c(N)nc2cc(-c3nnn(Cc4ncc(-c5nnc(C(F)F)o5)cc4F)n3)ccc21 [compound 370, 5-[2-[[5-[5-(difluoromethyl)-1,3,4-oxadiazol-2-yl]-3-fluoropyridin-2-yl]methyl]tetrazol-5-yl]-1-methylbenzimidazol-2-amine] | 23 | > 1e+06
Cn1c(N)nc2cc(-c3nnn(Cc4ccc(-c5nnc(C(F)F)o5)c(F)c4F)n3)ccc21 [compound 371, 5-[2-[[4-[5-(difluoromethyl)-1,3,4-oxadiazol-2-yl]-2,3-difluorophenyl]methyl]tetrazol-5-yl]-1-methylbenzimidazol-2-amine] | 25 | > 1e+06
